From ChEMBL document CHEMBL3351668, “Improvement of antibacterial activity of some sulfa drugs through linkage to certain phthalazin-1(2H)-one scaffolds” (2014)
In brackets after ≈: the same amount, converted by molar mass.

System: Streptococcus pneumoniae
Test: Antibacterial activity against Streptococcus pneumoniae RCMB 010010 at 100 umol/ml after 24 hrs by well diffusion assay
Type: functional
Details: not given

SMILES	diameter of the inhibition zone (DIZ) [mm]
O=C(Cn1nc(-c2ccc(Cl)cc2)c2ccccc2c1=O)Nc1ccc(S(=O)(=O)Nc2nccs2)cc1	20.2
COc1ccc(Cc2nn(CC(=O)Nc3ccc(S(=O)(=O)Nc4ncccn4)cc3)c(=O)c3ccccc23)cc1	16.3
COc1ccc(Cc2nn(CCC(=O)Nc3ccc(S(=O)(=O)Nc4ncccn4)cc3)c(=O)c3ccccc23)cc1	15.7
Nc1ccc(S(=O)(=O)Nc2ncccn2)cc1 [SULFADIAZINE]	14.2
Nc1ccc(S(N)(=O)=O)cc1 [SULFANILAMIDE]	15.8
Nc1ccc(S(=O)(=O)Nc2nccs2)cc1 [SULFATHIAZOLE]	15.8

System: Enterococcus faecalis
Test: Antibacterial activity against Enterococcus faecalis RCMB 010068 at 100 umol/ml after 24 hrs by well diffusion assay
Type: functional
Details: not given

SMILES	diameter of the inhibition zone (DIZ) [mm]
O=C(Cn1nc(-c2ccc(Cl)cc2)c2ccccc2c1=O)Nc1ccc(S(=O)(=O)Nc2nccs2)cc1	17.2
COc1ccc(Cc2nn(CC(=O)Nc3ccc(S(=O)(=O)Nc4ncccn4)cc3)c(=O)c3ccccc23)cc1	15.2
COc1ccc(Cc2nn(CCC(=O)Nc3ccc(S(=O)(=O)Nc4ncccn4)cc3)c(=O)c3ccccc23)cc1	17.2
Nc1ccc(S(=O)(=O)Nc2ncccn2)cc1 [SULFADIAZINE]	13.7
Nc1ccc(S(N)(=O)=O)cc1 [SULFANILAMIDE]	14.2
Nc1ccc(S(=O)(=O)Nc2nccs2)cc1 [SULFATHIAZOLE]	14.9

System: Staphylococcus aureus
Test: Antibacterial activity against Staphylococcus aureus RCMB 010028 at 100 umol/ml after 24 hrs by well diffusion assay
Type: functional
Details: not given

SMILES	diameter of the inhibition zone (DIZ) [mm]
O=C(Cn1nc(-c2ccc(Cl)cc2)c2ccccc2c1=O)Nc1ccc(S(=O)(=O)Nc2nccs2)cc1	19.9
COc1ccc(Cc2nn(CC(=O)Nc3ccc(S(=O)(=O)Nc4ncccn4)cc3)c(=O)c3ccccc23)cc1	18.6
COc1ccc(Cc2nn(CCC(=O)Nc3ccc(S(=O)(=O)Nc4ncccn4)cc3)c(=O)c3ccccc23)cc1	19.8
Nc1ccc(S(=O)(=O)Nc2ncccn2)cc1 [SULFADIAZINE]	18.3
Nc1ccc(S(N)(=O)=O)cc1 [SULFANILAMIDE]	16.8
Nc1ccc(S(=O)(=O)Nc2nccs2)cc1 [SULFATHIAZOLE]	15

System: Escherichia coli
Test: Antibacterial activity against Escherichia coli RCMB 010052 at 100 umol/ml after 24 hrs by well diffusion assay
Type: functional
Details: not given

SMILES	diameter of the inhibition zone (DIZ) [mm]
O=C(Cn1nc(-c2ccc(Cl)cc2)c2ccccc2c1=O)Nc1ccc(S(=O)(=O)Nc2nccs2)cc1	22.2
COc1ccc(Cc2nn(CC(=O)Nc3ccc(S(=O)(=O)Nc4ncccn4)cc3)c(=O)c3ccccc23)cc1	16.9
COc1ccc(Cc2nn(CCC(=O)Nc3ccc(S(=O)(=O)Nc4ncccn4)cc3)c(=O)c3ccccc23)cc1	16.2
Nc1ccc(S(=O)(=O)Nc2ncccn2)cc1 [SULFADIAZINE]	14.2
Nc1ccc(S(N)(=O)=O)cc1 [SULFANILAMIDE]	15.8
Nc1ccc(S(=O)(=O)Nc2nccs2)cc1 [SULFATHIAZOLE]	13.8

System: Salmonella typhimurium
Test: Antibacterial activity against Salmonella typhimurium RCMB 010072 at 100 umol/ml after 24 hrs by well diffusion assay
Type: functional, Salmonella enterica subsp. enterica serovar Typhimurium
Details: not given

SMILES	diameter of the inhibition zone (DIZ) [mm]
O=C(Cn1nc(-c2ccc(Cl)cc2)c2ccccc2c1=O)Nc1ccc(S(=O)(=O)Nc2nccs2)cc1	21.4
COc1ccc(Cc2nn(CC(=O)Nc3ccc(S(=O)(=O)Nc4ncccn4)cc3)c(=O)c3ccccc23)cc1	19.3
COc1ccc(Cc2nn(CCC(=O)Nc3ccc(S(=O)(=O)Nc4ncccn4)cc3)c(=O)c3ccccc23)cc1	17.4
Nc1ccc(S(=O)(=O)Nc2ncccn2)cc1 [SULFADIAZINE]	15
Nc1ccc(S(N)(=O)=O)cc1 [SULFANILAMIDE]	14.2
Nc1ccc(S(=O)(=O)Nc2nccs2)cc1 [SULFATHIAZOLE]	17.2

System: Streptococcus pneumoniae
Test: Antibacterial activity against Streptococcus pneumoniae RCMB 010010 after 24 hrs by twofold serial dilution technique
Type: functional
Details: RCMB 010010, 24 h

SMILES	MIC [mM]
O=C(Cn1nc(-c2ccc(Cl)cc2)c2ccccc2c1=O)Nc1ccc(S(=O)(=O)Nc2nccs2)cc1	1.56 (≈ 0.861 mg/mL)
Nc1ccc(S(N)(=O)=O)cc1 [SULFANILAMIDE]	25 (≈ 4.31 mg/mL)

Second part, the compound after the results:

MIC [mM]	SMILES
25 (≈ 13.9 mg/mL)	COc1ccc(Cc2nn(CC(=O)Nc3ccc(S(=O)(=O)Nc4ncccn4)cc3)c(=O)c3ccccc23)cc1
50 (≈ 28.5 mg/mL)	COc1ccc(Cc2nn(CCC(=O)Nc3ccc(S(=O)(=O)Nc4ncccn4)cc3)c(=O)c3ccccc23)cc1
100 (≈ 25 mg/mL)	Nc1ccc(S(=O)(=O)Nc2ncccn2)cc1 [SULFADIAZINE]
25 (≈ 6.38 mg/mL)	Nc1ccc(S(=O)(=O)Nc2nccs2)cc1 [SULFATHIAZOLE]

System: Enterococcus faecalis
Test: Antibacterial activity against Enterococcus faecalis RCMB 010068 after 24 hrs by twofold serial dilution technique
Type: functional
Details: RCMB 010068, 24 h

SMILES	MIC [mM]
O=C(Cn1nc(-c2ccc(Cl)cc2)c2ccccc2c1=O)Nc1ccc(S(=O)(=O)Nc2nccs2)cc1	25 (≈ 13.8 mg/mL)
Nc1ccc(S(N)(=O)=O)cc1 [SULFANILAMIDE]	100 (≈ 17.2 mg/mL)

Next, values leading:

MIC [mM]	SMILES
50 (≈ 27.8 mg/mL)	COc1ccc(Cc2nn(CC(=O)Nc3ccc(S(=O)(=O)Nc4ncccn4)cc3)c(=O)c3ccccc23)cc1
25 (≈ 14.3 mg/mL)	COc1ccc(Cc2nn(CCC(=O)Nc3ccc(S(=O)(=O)Nc4ncccn4)cc3)c(=O)c3ccccc23)cc1
100 (≈ 25 mg/mL)	Nc1ccc(S(=O)(=O)Nc2ncccn2)cc1 [SULFADIAZINE]
50 (≈ 12.8 mg/mL)	Nc1ccc(S(=O)(=O)Nc2nccs2)cc1 [SULFATHIAZOLE]

System: Staphylococcus aureus
Test: Antibacterial activity against Staphylococcus aureus RCMB 010028 after 24 hrs by twofold serial dilution technique
Type: functional
Details: RCMB 010028, 24 h

SMILES	MIC [mM]
O=C(Cn1nc(-c2ccc(Cl)cc2)c2ccccc2c1=O)Nc1ccc(S(=O)(=O)Nc2nccs2)cc1	3.12 (≈ 1.72 mg/mL)
Nc1ccc(S(N)(=O)=O)cc1 [SULFANILAMIDE]	12.5 (≈ 2.15 mg/mL)

Other lines, results leading:

MIC [mM]	SMILES
6.25 (≈ 3.48 mg/mL)	COc1ccc(Cc2nn(CC(=O)Nc3ccc(S(=O)(=O)Nc4ncccn4)cc3)c(=O)c3ccccc23)cc1
3.12 (≈ 1.78 mg/mL)	COc1ccc(Cc2nn(CCC(=O)Nc3ccc(S(=O)(=O)Nc4ncccn4)cc3)c(=O)c3ccccc23)cc1
6.25 (≈ 1.56 mg/mL)	Nc1ccc(S(=O)(=O)Nc2ncccn2)cc1 [SULFADIAZINE]
50 (≈ 12.8 mg/mL)	Nc1ccc(S(=O)(=O)Nc2nccs2)cc1 [SULFATHIAZOLE]

System: Escherichia coli
Test: Antibacterial activity against Escherichia coli RCMB 010052 after 24 hrs by twofold serial dilution technique
Type: functional
Details: RCMB 010052, 24 h

SMILES	MIC [mM]
O=C(Cn1nc(-c2ccc(Cl)cc2)c2ccccc2c1=O)Nc1ccc(S(=O)(=O)Nc2nccs2)cc1	0.39 (≈ 0.215 mg/mL)
Nc1ccc(S(N)(=O)=O)cc1 [SULFANILAMIDE]	25 (≈ 4.31 mg/mL)

The remaining lines, values ahead:

MIC [mM]	SMILES
25 (≈ 13.9 mg/mL)	COc1ccc(Cc2nn(CC(=O)Nc3ccc(S(=O)(=O)Nc4ncccn4)cc3)c(=O)c3ccccc23)cc1
50 (≈ 28.5 mg/mL)	COc1ccc(Cc2nn(CCC(=O)Nc3ccc(S(=O)(=O)Nc4ncccn4)cc3)c(=O)c3ccccc23)cc1
100 (≈ 25 mg/mL)	Nc1ccc(S(=O)(=O)Nc2ncccn2)cc1 [SULFADIAZINE]
100 (≈ 25.5 mg/mL)	Nc1ccc(S(=O)(=O)Nc2nccs2)cc1 [SULFATHIAZOLE]

System: Salmonella typhimurium
Test: Antibacterial activity against Salmonella typhimurium RCMB 010072 after 24 hrs by twofold serial dilution technique
Type: functional, Salmonella enterica subsp. enterica serovar Typhimurium
Details: Salmonella enterica, RCMB 010072, 24 h

SMILES	MIC [mM]
O=C(Cn1nc(-c2ccc(Cl)cc2)c2ccccc2c1=O)Nc1ccc(S(=O)(=O)Nc2nccs2)cc1	0.78 (≈ 0.431 mg/mL)
Nc1ccc(S(N)(=O)=O)cc1 [SULFANILAMIDE]	100 (≈ 17.2 mg/mL)

Results, then the compound that gave them:

MIC [mM]	SMILES
3.12 (≈ 1.74 mg/mL)	COc1ccc(Cc2nn(CC(=O)Nc3ccc(S(=O)(=O)Nc4ncccn4)cc3)c(=O)c3ccccc23)cc1
25 (≈ 14.3 mg/mL)	COc1ccc(Cc2nn(CCC(=O)Nc3ccc(S(=O)(=O)Nc4ncccn4)cc3)c(=O)c3ccccc23)cc1
50 (≈ 12.5 mg/mL)	Nc1ccc(S(=O)(=O)Nc2ncccn2)cc1 [SULFADIAZINE]
12.5 (≈ 3.19 mg/mL)	Nc1ccc(S(=O)(=O)Nc2nccs2)cc1 [SULFATHIAZOLE]
